From PubChem BioAssay AID192 (DTP/NCI, 2004) come the findings set out here.

The subject of the experiment is BDF1 mice, B16 melanoma ip, median survival T/C. As to the kind of experiment: NCI In Vivo Anticancer Drug Screen. Data for tumor model B16 Melanoma (intraperitoneal) in B6D2F1 (BDF1) mice. As to conditions: endpoint: median survival time, higher = longer survival. The method, boiled down:
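Transplantable tumor model; survival or tumor size measured; reported as T/C, treated over vehicle control.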

Setting [1] is: dose: 25.0 mg/kg/injection, schedule: Q01DX009 (ip), vehicle: saline with Tween-80.
Where [2] appears, read: dose: 50.0 mg/kg/injection, schedule: Q01DX009 (ip), vehicle: saline with Tween-80.
Where [3] appears, read: dose: 100.0 mg/kg/injection, schedule: Q01DX009 (ip), vehicle: saline with Tween-80.
[4] abbreviates: dose: 50.0 mg/kg/injection, schedule: Q01DX009 (ip), vehicle: Klucel (hydroxypropylcellulose) (HPC).
[5] abbreviates: dose: 100.0 mg/kg/injection, schedule: Q01DX009 (ip), vehicle: Klucel (hydroxypropylcellulose) (HPC).
Setting [6] is: dose: 200.0 mg/kg/injection, schedule: Q01DX009 (ip), vehicle: Klucel (hydroxypropylcellulose) (HPC).
The mark [7] stands for this setting: dose: 400.0 mg/kg/injection, schedule: Q01DX009 (ip), vehicle: saline with Tween-80.
The mark [8] stands for this setting: dose: 25.0 mg/kg/injection, schedule: Q01DX009 (ip), vehicle: Klucel (hydroxypropylcellulose) (HPC).
The mark [9] stands for this setting: dose: 400.0 mg/kg/injection, schedule: Q01DX009 (ip), vehicle: Klucel (hydroxypropylcellulose) (HPC).

Inconclusive results and toxic doses are left out.

Turning to `O=[N+]([O-])C(CO)(CO)CO`, the T/C by setting is: (dose: 100.0 mg/kg/injection, schedule: Q04DX003 (ip), vehicle: saline) 110 % of control; (dose: 200.0 mg/kg/injection, schedule: Q04DX003 (ip), vehicle: saline) 110 % of control; (dose: 400.0 mg/kg/injection, schedule: Q04DX003 (ip), vehicle: saline) 96 % of control.
For the compound `CC(=O)OC1C(OC(C)=O)C2C(C)CC3OC(=O)C(C)C3CC2(C)C1OC(C)=O` (stereo not given), the T/C is, setting by setting: under setting [1], 111 % of control; under setting [2], 110 % of control; under setting [3], 106 % of control.
With `COC(=O)C1C(O)C(C)C(O)C(C)(O)C=C(C)C2=C3C(=C(C)C(=O)c4c(O)c(c(C)c(OC(C)=O)c43)NC(=O)C(C)=C/C=C\C(C)(O)C(O)C(C)C1O)OCO2` (stereo not given), the T/C by setting is: under setting [4], 94 % of control; under setting [5], 94 % of control; under setting [6], 91 % of control.
On to `N#Cc1cccnc1.NCCNCCN.[Br-].[Pt+4]`, for which the T/C is 100 % of control (dose: 12.5 mg/kg/injection, schedule: Q01DX009 (ip), vehicle: saline); 94 % of control (dose: 25.0 mg/kg/injection, schedule: Q01DX009 (ip), vehicle: saline); 99 % of control (dose: 50.0 mg/kg/injection, schedule: Q01DX009 (ip), vehicle: saline); 99 % of control (dose: 100.0 mg/kg/injection, schedule: Q01DX009 (ip), vehicle: saline); 89 % of control (dose: 200.0 mg/kg/injection, schedule: Q01DX009 (ip), vehicle: saline).
In the case of `C=CCN(CC=C)P(=O)(N1CC1)N1CC1C` (stereo not given), the T/C (dose: 0.36 mg/kg/injection, schedule: Q01DX009 (ip), vehicle: saline) is 112 % of control; the T/C (dose: 0.5 mg/kg/injection, schedule: Q01DX009 (ip), vehicle: saline) is 110 % of control; the T/C (dose: 0.83 mg/kg/injection, schedule: Q01DX009 (ip), vehicle: saline) is 116 % of control; the T/C (dose: 1.25 mg/kg/injection, schedule: Q01DX009 (ip), vehicle: saline) was 114 % of control; the T/C (dose: 1.8 mg/kg/injection, schedule: Q01DX009 (ip), vehicle: saline) is 99 % of control.
Turning to `COc1c(C)c2c(c(O)c1C/C=C(\C)CCC(=O)O)C(=O)OC2`, the T/C was 96 % of control (dose: 6.25 mg/kg/injection, schedule: Q01DX009 (ip), vehicle: distilled water + Tween-80); 95 % of control (dose: 12.5 mg/kg/injection, schedule: Q01DX009 (ip), vehicle: distilled water + Tween-80); 107 % of control (dose: 25.0 mg/kg/injection, schedule: Q01DX009 (ip), vehicle: distilled water + Tween-80); 94 % of control (dose: 50.0 mg/kg/injection, schedule: Q01DX009 (ip), vehicle: distilled water + Tween-80); 104 % of control (dose: 100.0 mg/kg/injection, schedule: Q01DX009 (ip), vehicle: distilled water + Tween-80); 104 % of control (dose: 200.0 mg/kg/injection, schedule: Q01DX009 (ip), vehicle: distilled water + Tween-80).
Regarding `CCOC(=O)C(C(=O)OCC)c1cc(NC(=O)c2ccccc2)ccc1NC(=O)c1ccccc1`, the T/C is, setting by setting: under setting [3], 95 % of control; (dose: 200.0 mg/kg/injection, schedule: Q01DX009 (ip), vehicle: saline with Tween-80) 91 % of control; under setting [7], 89 % of control.
Turning to `CNC(=O)NCc1ccc(C(=O)NC(C)C)cc1`, the T/C was 111 % of control under setting [8]; 98 % of control under setting [4]; 99 % of control under setting [5]; 101 % of control under setting [6]; 101 % of control under setting [9].
As for `O=C1C(NC(=O)C2CCCCC2)=C(N2CC2)C(=O)C(NC(=O)C2CCCCC2)=C1N1CC1`, the T/C under setting [8] was 109 % of control and the T/C under setting [4] is 102 % of control.
On to `CS(=O)(=O)Nc1ccc(Nc2c3ccccc3nc3cc([N+](=O)[O-])ccc23)cc1`, for which the T/C by setting is: (dose: 0.6 mg/kg/injection, schedule: Q01DX009 (ip), vehicle: saline sonified) 112 % of control; (dose: 2.5 mg/kg/injection, schedule: Q01DX009 (ip), vehicle: saline sonified) 154 % of control; (dose: 50.0 mg/kg/injection, schedule: Q01DX001 (ip), vehicle: saline sonified) 158 % of control.
Consider `O=C(O)c1cccc2c(=O)c3ccccc3sc12`, for which the T/C was 100 % of control under setting [5], 100 % of control under setting [6] and 93 % of control under setting [9].
With `CC1=C/C(O)CC(=O)Cc2nc(co2)C(=O)N2CCC=C2C(=O)OC(C(C)C)C(C)/C=C\C(=O)NC/C=C\1` (stereo not given), the T/C was 91 % of control under setting [8]; 102 % of control under setting [4]; 118 % of control under setting [5]; 123 % of control under setting [6]; 103 % of control (dose: 0.5 micrograms/kg/injection, schedule: Q01DX009 (ip), vehicle: saline); 102 % of control (dose: 1.0 micrograms/kg/injection, schedule: Q01DX009 (ip), vehicle: saline). Also, the T/C (dose: 2.0 micrograms/kg/injection, schedule: Q01DX009 (ip), vehicle: saline) was 107 % of control.
`Cc1cc(=NO)cc(C)n1O`: the T/C runs as follows: (dose: 25.0 mg/kg/injection, schedule: Q01DX009 (ip), vehicle: distilled water + alcohol) 100 % of control; (dose: 50.0 mg/kg/injection, schedule: Q01DX009 (ip), vehicle: distilled water + alcohol) 98 % of control; (dose: 200.0 mg/kg/injection, schedule: Q01DX009 (ip), vehicle: distilled water + alcohol) 86 % of control.
Regarding `CC/C(=C/C(F)(F)C(F)(F)C(F)(F)F)[N+](=O)[O-]`, the T/C reads like this: (dose: 12.5 mg/kg/injection, schedule: Q01DX009 (ip), vehicle: Klucel (hydroxypropylcellulose) (HPC)) 101 % of control; under setting [8], 87 % of control; under setting [4], 87 % of control.
`CC1(C)OC2OC(COC(=O)c3ccccc3)C(=O)C2O1` (stereo not given): the T/C by setting is: under setting [1], 94 % of control; under setting [2], 97 % of control; under setting [3], 93 % of control; under setting [7], 88 % of control.
Turning to `CCCCCCCCCCCC(=O)NC1CC(O[C@H]2C[C@](O)(C(=O)CO)Cc3c(O)c4c(c(O)c32)C(=O)c2c(OC)cccc2C4=O)OC(C)C1O` (stereo not given in full), the T/C by setting is: (dose: 12.5 mg/kg/injection, schedule: Q01DX001 (ip), vehicle: distilled water + Tween-80) 119 % of control; (dose: 12.5 mg/kg/injection, schedule: Q01DX001 (ip), vehicle: water) 195 % of control; (dose: 25.0 mg/kg/injection, schedule: Q01DX001 (ip), vehicle: distilled water + Tween-80) 189 % of control; (dose: 25.0 mg/kg/injection, schedule: Q01DX001 (ip), vehicle: water) 233 % of control; (dose: 50.0 mg/kg/injection, schedule: Q01DX001 (ip), vehicle: distilled water + Tween-80) 195 % of control; (dose: 50.0 mg/kg/injection, schedule: Q01DX001 (ip), vehicle: water) 257 % of control. The T/C runs as follows: (dose: 100.0 mg/kg/injection, schedule: Q01DX001 (ip), vehicle: distilled water + Tween-80) 258 % of control; (dose: 100.0 mg/kg/injection, schedule: Q01DX001 (ip), vehicle: water) 325 % of control; (dose: 200.0 mg/kg/injection, schedule: Q01DX001 (ip), vehicle: distilled water + Tween-80) 215 % of control; (dose: 200.0 mg/kg/injection, schedule: Q01DX001 (ip), vehicle: water) 104 % of control; (dose: 400.0 mg/kg/injection, schedule: Q01DX001 (ip), vehicle: distilled water + Tween-80) 231 % of control; (dose: 400.0 mg/kg/injection, schedule: Q01DX001 (ip), vehicle: water) 102 % of control.
Consider `CNC(C)C1(O)Cc2c(O)c3c(c(O)c2C(OC2CC(N)C(O)C(C)O2)C1)C(=O)c1c(OC)cccc1C3=O` (stereo not given), for which the T/C is 108 % of control (dose: 0.5 mg/kg/injection, schedule: Q01DX009 (ip), vehicle: water); 112 % of control (dose: 1.0 mg/kg/injection, schedule: Q01DX009 (ip), vehicle: water); 163 % of control (dose: 4.0 mg/kg/injection, schedule: Q01DX009 (ip), vehicle: water); 172 % of control (dose: 8.0 mg/kg/injection, schedule: Q01DX009 (ip), vehicle: water).
`CC(C)(COC(=O)c1ccccc1)COC(=O)c1ccccc1`: the T/C was 111 % of control under setting [5], 105 % of control under setting [6] and 99 % of control under setting [9].
Turning to `c1ccc2c(c1)CCc1ccccc1C2NC1=NCCO1`, the T/C is 104 % of control (dose: 6.25 mg/kg/injection, schedule: Q01DX009 (ip), vehicle: saline with Tween-80); 100 % of control (dose: 12.5 mg/kg/injection, schedule: Q01DX009 (ip), vehicle: saline with Tween-80); 92 % of control under setting [1].
